According to ChEMBL document CHEMBL1142268, “Histone deacetylase inhibitors: from bench to clinic” (J Med Chem, 2008):
Blank lines part the entries; values can stand above or below the molecule they belong to. The source made the active and inactive calls. The rule behind the calls is not given here.

Experiments:
Histone deacetylase 7 = Histone deacetylase 7 (Homo sapiens, UniProt Q8WUI4)
Histone deacetylase 3 = Histone deacetylase 3 (Homo sapiens, UniProt O15379)
[1] = target: T1, Protein deacetylase HDAC6 (Homo sapiens, UniProt Q9UBN7)
T1 sequence (Q9UBN7 whole entry): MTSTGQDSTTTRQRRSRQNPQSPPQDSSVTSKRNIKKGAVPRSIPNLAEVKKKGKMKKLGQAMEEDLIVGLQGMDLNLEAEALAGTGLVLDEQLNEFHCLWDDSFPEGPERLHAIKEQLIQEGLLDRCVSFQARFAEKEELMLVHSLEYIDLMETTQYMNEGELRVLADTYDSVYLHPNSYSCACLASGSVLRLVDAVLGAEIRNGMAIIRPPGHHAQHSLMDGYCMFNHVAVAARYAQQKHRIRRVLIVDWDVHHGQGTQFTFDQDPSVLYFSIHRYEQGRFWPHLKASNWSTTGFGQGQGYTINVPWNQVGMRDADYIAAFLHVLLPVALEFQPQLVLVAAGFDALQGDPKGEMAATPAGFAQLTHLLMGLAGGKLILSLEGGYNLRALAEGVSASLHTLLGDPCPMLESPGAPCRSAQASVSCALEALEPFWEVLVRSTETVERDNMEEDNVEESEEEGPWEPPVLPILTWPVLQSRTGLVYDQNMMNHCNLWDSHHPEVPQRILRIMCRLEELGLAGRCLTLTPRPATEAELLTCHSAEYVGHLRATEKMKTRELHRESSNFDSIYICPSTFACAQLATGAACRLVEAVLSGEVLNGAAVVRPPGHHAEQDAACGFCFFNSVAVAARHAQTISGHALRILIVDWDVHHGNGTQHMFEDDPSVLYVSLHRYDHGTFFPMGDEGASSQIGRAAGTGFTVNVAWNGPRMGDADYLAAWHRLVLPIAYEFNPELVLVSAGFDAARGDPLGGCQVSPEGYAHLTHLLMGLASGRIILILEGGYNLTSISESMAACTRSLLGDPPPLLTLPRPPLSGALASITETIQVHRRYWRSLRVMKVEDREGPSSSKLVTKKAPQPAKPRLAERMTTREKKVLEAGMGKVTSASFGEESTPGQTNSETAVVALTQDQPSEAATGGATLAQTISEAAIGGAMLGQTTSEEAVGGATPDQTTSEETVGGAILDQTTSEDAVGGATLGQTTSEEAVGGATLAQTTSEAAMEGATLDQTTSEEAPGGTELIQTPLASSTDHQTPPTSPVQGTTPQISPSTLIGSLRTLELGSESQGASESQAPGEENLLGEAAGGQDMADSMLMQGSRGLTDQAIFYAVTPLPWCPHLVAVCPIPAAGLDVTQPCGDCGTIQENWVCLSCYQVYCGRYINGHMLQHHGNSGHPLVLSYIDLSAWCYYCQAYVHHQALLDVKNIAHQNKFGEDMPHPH

Histone deacetylase 8 = target: T2, Histone deacetylase 8 (Homo sapiens, UniProt Q9BY41)
T2 sequence (Q9BY41 whole entry): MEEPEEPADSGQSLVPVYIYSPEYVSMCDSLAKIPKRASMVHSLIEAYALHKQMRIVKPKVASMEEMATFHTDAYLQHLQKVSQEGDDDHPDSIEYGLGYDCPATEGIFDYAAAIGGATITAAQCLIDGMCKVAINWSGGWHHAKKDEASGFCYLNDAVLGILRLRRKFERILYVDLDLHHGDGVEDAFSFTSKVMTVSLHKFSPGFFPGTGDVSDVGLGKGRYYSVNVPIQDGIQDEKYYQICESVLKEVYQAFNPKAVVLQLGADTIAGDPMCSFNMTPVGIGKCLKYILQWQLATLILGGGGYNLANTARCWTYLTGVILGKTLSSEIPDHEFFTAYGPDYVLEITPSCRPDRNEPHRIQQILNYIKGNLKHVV

Histone deacetylase 5 = Histone deacetylase 5 (Homo sapiens, UniProt Q9UQL6)
Histone deacetylase 4 [2] = target: T3, Histone deacetylase 4 (Homo sapiens, UniProt P56524); assay: Inhibition of HDAC4 at 50 uM
Histone deacetylase 9 = Histone deacetylase 9 (Homo sapiens, UniProt Q9UKV0)
Histone deacetylase 4 [3] = target: T3, Histone deacetylase 4
Histone deacetylase 1 [4] = target: T4, Histone deacetylase 1 (Homo sapiens, UniProt Q13547); assay: Inhibition of HDAC1 from human HeLa cells; format: cell-based
A2780 = assay: Inhibition of human A2780 cells; format: functional, cell-based
MCF7 = assay: Inhibition of human MCF7 cells; format: functional, cell-based
[5] = target: Histone deacetylase 7 (Homo sapiens) (UniProt Q8WUI4); assay: Inhibition of HDAC7
Histone deacetylase 1 [6] = target: T4, Histone deacetylase 1
Description: Inhibition of human HDAC1

Histone deacetylase 1 [7] = target: T4, Histone deacetylase 1; remark: listed apart in the source
[8] = Growth inhibition of human renal epithelial cells; format: functional, cell-based; conditions: Epithelial cell
[9] = Metabolic stability in human liver microsomes; format: ADME, Microsome
Histone deacetylase 2 = Histone deacetylase 2 (Homo sapiens, UniProt Q92769)
HeLa = assay: Inhibition of human HeLa cells; format: functional, cell-based
A549 = assay: cells; conditions: Homo sapiens
Description: Antiproliferative activity against human A549 cells

U-937 = assay: Inhibition of human U937 cells; format: functional, cell-based
HCT-116 = assay: Inhibition of human HCT116 cells; format: functional, cell-based
Histone deacetylase 4 [10] = target: T3, Histone deacetylase 4; remark: listed apart in the source
G-401 = assay: Inhibition of human G401 cells; format: functional, cell-based

T4 sequence (Q13547 whole entry): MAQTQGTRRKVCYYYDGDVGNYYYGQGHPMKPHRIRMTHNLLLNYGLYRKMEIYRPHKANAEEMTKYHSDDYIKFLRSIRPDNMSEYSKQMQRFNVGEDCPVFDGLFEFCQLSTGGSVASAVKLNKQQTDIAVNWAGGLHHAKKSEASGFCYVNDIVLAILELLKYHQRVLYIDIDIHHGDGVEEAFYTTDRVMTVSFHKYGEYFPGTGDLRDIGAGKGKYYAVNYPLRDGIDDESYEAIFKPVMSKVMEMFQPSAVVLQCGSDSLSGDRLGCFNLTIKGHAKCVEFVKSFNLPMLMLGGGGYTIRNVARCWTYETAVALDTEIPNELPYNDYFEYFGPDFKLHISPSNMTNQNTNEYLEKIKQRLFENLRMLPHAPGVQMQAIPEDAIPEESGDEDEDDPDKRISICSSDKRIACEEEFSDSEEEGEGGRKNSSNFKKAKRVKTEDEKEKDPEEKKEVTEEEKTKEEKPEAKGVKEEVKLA
Sequence of Histone deacetylase 5 (Q9UQL6 whole entry): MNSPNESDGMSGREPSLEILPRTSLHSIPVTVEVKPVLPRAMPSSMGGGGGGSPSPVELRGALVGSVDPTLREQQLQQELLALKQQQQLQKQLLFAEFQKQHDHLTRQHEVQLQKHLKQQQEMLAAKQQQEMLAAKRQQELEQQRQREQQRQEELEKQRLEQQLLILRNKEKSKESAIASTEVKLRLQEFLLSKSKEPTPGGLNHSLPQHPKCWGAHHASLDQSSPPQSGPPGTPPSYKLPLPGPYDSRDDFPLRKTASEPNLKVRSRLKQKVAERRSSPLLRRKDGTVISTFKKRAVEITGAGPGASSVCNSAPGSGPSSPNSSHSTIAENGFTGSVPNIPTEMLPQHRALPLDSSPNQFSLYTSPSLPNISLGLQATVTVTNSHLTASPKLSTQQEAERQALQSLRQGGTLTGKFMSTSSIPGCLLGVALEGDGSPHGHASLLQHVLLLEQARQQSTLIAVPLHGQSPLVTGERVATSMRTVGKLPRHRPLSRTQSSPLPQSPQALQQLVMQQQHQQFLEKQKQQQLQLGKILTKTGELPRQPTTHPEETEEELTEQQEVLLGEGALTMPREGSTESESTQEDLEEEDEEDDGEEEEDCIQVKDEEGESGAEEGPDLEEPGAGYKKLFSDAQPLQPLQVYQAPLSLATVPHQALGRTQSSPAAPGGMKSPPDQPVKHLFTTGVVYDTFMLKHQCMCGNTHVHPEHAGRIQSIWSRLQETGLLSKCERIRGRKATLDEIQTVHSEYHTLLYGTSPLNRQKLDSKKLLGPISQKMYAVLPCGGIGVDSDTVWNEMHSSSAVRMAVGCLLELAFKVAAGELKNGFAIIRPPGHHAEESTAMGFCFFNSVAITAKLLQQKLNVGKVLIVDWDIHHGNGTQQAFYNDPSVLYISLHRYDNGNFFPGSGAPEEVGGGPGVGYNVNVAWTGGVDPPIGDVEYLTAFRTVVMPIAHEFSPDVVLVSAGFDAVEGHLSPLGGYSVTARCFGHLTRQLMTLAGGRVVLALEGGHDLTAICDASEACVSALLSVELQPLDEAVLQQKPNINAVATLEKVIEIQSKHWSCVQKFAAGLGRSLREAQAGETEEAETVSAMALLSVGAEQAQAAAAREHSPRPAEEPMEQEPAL
T3 sequence (P56524 whole entry): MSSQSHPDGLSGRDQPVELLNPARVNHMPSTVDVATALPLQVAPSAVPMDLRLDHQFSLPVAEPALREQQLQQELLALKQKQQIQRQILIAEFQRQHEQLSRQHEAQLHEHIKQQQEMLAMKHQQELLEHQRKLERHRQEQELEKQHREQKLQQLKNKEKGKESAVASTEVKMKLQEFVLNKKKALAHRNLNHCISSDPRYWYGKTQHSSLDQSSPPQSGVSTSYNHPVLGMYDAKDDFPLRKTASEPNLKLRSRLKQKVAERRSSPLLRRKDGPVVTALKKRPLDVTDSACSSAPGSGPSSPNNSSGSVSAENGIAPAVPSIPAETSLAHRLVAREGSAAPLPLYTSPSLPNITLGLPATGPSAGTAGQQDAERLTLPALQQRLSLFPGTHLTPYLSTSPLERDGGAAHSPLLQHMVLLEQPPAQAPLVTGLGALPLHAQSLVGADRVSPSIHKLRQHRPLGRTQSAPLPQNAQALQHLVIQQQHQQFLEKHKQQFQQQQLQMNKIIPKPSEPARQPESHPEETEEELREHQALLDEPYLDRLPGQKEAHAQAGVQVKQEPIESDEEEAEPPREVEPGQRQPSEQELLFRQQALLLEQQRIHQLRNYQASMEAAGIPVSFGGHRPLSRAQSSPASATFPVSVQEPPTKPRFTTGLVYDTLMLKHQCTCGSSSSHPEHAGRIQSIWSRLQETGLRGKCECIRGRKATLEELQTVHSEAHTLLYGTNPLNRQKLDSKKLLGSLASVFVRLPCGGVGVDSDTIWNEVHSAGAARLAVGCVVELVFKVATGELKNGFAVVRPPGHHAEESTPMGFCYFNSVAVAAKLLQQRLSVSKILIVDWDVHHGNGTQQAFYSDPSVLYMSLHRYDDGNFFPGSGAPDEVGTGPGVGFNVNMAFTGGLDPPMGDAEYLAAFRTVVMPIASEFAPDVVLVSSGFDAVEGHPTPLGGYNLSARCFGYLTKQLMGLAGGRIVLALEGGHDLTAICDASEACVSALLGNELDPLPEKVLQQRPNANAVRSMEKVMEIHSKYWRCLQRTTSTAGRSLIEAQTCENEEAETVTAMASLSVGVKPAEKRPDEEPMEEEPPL
Sequence of Histone deacetylase 3 (O15379 whole entry): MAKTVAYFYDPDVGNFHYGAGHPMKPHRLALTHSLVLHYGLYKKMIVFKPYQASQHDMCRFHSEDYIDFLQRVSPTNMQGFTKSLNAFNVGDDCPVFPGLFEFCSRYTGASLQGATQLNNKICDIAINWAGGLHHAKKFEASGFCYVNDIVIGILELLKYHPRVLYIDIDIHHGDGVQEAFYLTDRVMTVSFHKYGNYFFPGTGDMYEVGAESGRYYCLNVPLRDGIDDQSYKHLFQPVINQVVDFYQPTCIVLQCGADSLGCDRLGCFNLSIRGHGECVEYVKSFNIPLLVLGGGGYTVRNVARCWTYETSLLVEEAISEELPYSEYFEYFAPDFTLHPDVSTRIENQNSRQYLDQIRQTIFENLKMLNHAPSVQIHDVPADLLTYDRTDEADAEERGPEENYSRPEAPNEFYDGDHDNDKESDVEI
Sequence of Histone deacetylase 7 (Q8WUI4 whole entry): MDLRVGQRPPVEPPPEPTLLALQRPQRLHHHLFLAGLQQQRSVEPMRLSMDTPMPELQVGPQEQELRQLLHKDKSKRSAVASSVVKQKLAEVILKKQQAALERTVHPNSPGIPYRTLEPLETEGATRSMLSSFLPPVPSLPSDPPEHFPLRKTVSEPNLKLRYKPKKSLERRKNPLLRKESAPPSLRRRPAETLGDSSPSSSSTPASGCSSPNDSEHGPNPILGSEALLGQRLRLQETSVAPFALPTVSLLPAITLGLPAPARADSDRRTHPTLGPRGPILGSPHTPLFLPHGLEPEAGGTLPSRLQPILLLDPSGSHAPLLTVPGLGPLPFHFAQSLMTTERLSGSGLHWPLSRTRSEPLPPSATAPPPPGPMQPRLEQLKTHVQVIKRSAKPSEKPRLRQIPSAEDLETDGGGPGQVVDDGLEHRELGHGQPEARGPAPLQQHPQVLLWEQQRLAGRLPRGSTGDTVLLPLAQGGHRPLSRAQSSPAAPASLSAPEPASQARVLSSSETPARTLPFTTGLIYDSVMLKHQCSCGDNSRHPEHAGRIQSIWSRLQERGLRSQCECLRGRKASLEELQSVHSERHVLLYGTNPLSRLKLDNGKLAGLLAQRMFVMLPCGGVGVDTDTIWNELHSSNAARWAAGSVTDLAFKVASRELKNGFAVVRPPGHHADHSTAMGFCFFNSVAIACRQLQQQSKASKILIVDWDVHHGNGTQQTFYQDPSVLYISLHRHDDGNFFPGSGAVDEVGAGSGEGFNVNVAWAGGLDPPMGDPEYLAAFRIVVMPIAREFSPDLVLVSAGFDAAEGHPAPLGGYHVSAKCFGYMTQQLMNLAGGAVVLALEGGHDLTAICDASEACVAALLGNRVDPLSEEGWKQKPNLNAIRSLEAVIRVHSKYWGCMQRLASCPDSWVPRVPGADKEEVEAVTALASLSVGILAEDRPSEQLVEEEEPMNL
Sequence of Histone deacetylase 2 (Q92769 whole entry): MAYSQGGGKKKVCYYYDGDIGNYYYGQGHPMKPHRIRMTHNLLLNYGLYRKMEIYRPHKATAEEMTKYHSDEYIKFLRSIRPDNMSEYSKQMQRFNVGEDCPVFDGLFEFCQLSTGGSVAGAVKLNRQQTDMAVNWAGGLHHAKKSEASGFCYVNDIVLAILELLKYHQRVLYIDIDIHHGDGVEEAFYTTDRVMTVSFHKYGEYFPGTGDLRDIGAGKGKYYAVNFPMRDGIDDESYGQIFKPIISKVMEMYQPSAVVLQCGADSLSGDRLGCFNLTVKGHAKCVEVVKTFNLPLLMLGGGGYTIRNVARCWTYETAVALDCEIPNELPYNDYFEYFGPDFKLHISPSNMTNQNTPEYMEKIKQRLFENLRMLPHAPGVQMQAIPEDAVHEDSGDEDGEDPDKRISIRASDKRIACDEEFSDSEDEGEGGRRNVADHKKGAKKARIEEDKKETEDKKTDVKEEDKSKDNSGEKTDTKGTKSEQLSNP
Sequence of Histone deacetylase 7 (Homo sapiens) (Q8WUI4 whole entry): as the sequence (Q8WUI4 whole entry) above

- IC50 (Histone deacetylase 7): 9700 nM
- IC50 (Histone deacetylase 3): 80 nM
- IC50 [1]: 12000 nM
- IC50 (Histone deacetylase 8): 3700 nM
- IC50 (Histone deacetylase 5): 10000 nM
- inhibition (Histone deacetylase 4 [2]): 30%
- IC50 (Histone deacetylase 9): 28000 nM
Structure (SMILES): CC(C)[C@H]1NC(=O)[C@@H](C)[C@@H](C/C=C\CCC(=O)O)NC(=O)[C@@H](Cc2ccccc2)NC(=O)[C@@H](C)NC1=O [AZUMAMIDE E]

- IC50 (Histone deacetylase 7): > 20000 nM
- IC50 (Histone deacetylase 4 [3]): > 20000 nM
- IC50 (Histone deacetylase 8): > 20000 nM
- IC50 (Histone deacetylase 5): > 20000 nM
Structure (SMILES): CC(=O)Nc1ccc(C(=O)Nc2cc(-c3cccs3)ccc2N)cc1

Structure (SMILES): CC(=O)CCCCC[C@H](NC1CCCCN1C)C(=O)Nc1nc(-c2ccccc2)cs1 (stereo not given in full)
- IC50 (Histone deacetylase 1 [4]): 430 nM
- IC50 (A2780): 1700 nM
- IC50 (MCF7): 230 nM
- Activity [5]: inactive
- IC50 (Histone deacetylase 1 [6]): 55 nM
- IC50 (Histone deacetylase 3): 14 nM
- IC50 (Histone deacetylase 1 [7]): 55 nM
- IC50 [8]: > 20000 nM
- microsomal CLint [9]: 54 µL/min/mg
- IC50 (Histone deacetylase 2): 170 nM
- IC50 [1]: 13 nM
- IC50 (HeLa): 430 nM
- IC50 (A549): 2000 nM
- IC50 (U-937): 450 nM
- IC50 (HCT-116): 670 nM
- IC50 (Histone deacetylase 8): 3000 nM
- IC50 (Histone deacetylase 5): 1900 nM
- AC50 (Histone deacetylase 4 [10]): Not Active
- IC50 (G-401): 250 nM
